Structures can show the parent of a compound that is named as a salt.
These compounds were tested against recombinant human DHODH (Homo sapiens, UniProt Q02127) (assay: Endpoint DHODH enzyme assay (coenzyme Q10, DCIP)). Conditions: compound at 10 µM; Supplementary Table 5, 20,000 compound library.
recombinant human DHODH, sequence (Q02127 31-395 limits assumed): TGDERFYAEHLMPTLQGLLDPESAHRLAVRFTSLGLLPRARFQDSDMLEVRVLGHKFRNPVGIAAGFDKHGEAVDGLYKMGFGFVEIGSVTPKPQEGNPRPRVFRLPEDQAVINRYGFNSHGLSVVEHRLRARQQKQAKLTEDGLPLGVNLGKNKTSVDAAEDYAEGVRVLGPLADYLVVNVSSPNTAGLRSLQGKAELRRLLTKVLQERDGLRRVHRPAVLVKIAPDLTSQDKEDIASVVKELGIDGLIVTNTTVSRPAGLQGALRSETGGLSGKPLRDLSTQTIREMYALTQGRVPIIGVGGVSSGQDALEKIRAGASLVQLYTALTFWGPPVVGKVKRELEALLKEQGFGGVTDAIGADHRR
Format: biochemical
Parameters: purchased Prospecbio ENZ-642
Experimental: In Supplementary Tables 5 and 6, endpoint assays were performed with 10 nM recombinant human DHODH (#ENZ-642, Prospecbio). The reaction mixture consisted of 624.6 µM DL-dihydroorotic acid, 66.4 µM coenzyme Q10, 66.4 µM 2,6-dichlorophenolindophenol sodium salt (DCIP) (all reagents purchased from Sigma-Aldrich) in enzyme buffer (50 mM Tris-HCl, pH 8.0, 0.1% Triton X-100, 150 mM KCl). Loss in absorbance by DCIP was measured at 595 nm after incubation at RT for 60 min.
Work on `Cc1ccccc1NC(=S)NC(=O)c1cccc2c(Br)cccc12` [compound 6592864, 5-bromo-N-{[(2-methylphenyl)amino]carbonothioyl}-1-naphthamide] yielded a remaining activity at 10 µM of 72.2%. Compound `O=c1oc2ccccc2cc1-c1cn2cc(Cl)ccc2n1` [compound 6623100, 3-(6-chloroimidazo[1,2-a]pyridin-2-yl)-2H-chromen-2-one] has a remaining activity at 10 µM of 96.3%. In the case of `COc1ccc(OC)c(C(C)NC(=O)c2ccco2)c1` (centres unmarked) [compound 6912406, N-[1-(2,5-dimethoxyphenyl)ethyl]-2-furamide], the remaining activity at 10 µM is reported as 93.2%. `COc1cc(CNc2ccc(C)c(Cl)c2)cc(Cl)c1OC` [compound 7574753, (3-chloro-4,5-dimethoxybenzyl)(3-chloro-4-methylphenyl)amine] showed a remaining activity at 10 µM of 79.9%. Compound `CCN(CC)c1ccc(NC(=S)NC(=O)c2cccc(C)c2OC)cc1` [compound 7578012, N-({[4-(diethylamino)phenyl]amino}carbonothioyl)-2-methoxy-3-methylbenzamide] has a remaining activity at 10 µM of 79%. `CCOc1cccc2c(C)nc(Nc3nc(=O)c4c([nH]3)CCCC4)nc12` [compound 7587351, 2-[(8-ethoxy-4-methyl-2-quinazolinyl)amino]-5,6,7,8-tetrahydro-4(1H)-quinazolinone] was tested, and the remaining activity at 10 µM was 92.7%. In the case of `O=S(=O)(CCSc1nc2ccccc2o1)c1nc2ccccc2s1` [compound 7617239, 2-{[2-(1,3-benzothiazol-2-ylsulfonyl)ethyl]thio}-1,3-benzoxazole], the remaining activity at 10 µM is reported as 103%. For `CCc1cccc(C)c1NC(=O)CSc1nc2ccccc2c(=O)n1-c1cccc2ccccc12` [compound 7638934, N-(2-ethyl-6-methylphenyl)-2-{[3-(1-naphthyl)-4-oxo-3,4-dihydro-2-quinazolinyl]thio}acetamide], the “remaining DHODH activity (%) Average” value was 72.65%. With `O=C(Nc1nc2c(s1)CCCC2)C(=O)c1c[nH]c2ccccc12` [compound 7690424, 2-(1H-indol-3-yl)-2-oxo-N-(4,5,6,7-tetrahydro-1,3-benzothiazol-2-yl)acetamide] the remaining activity at 10 µM was 11%. In the case of `CC1=C(C(=O)Nc2ccc(F)cc2)C(c2ccccc2OCc2ccccc2)C2=C(CCCC2=O)N1` (centres unmarked) [compound 7705624, 4-[2-(benzyloxy)phenyl]-N-(4-fluorophenyl)-2-methyl-5-oxo-1,4,5,6,7,8-hexahydro-3-quinolinecarboxamide], the “remaining DHODH activity (%) Average” value is reported as 104.27%. `CCOC(=O)C1=C(C)NC2=C(C(=O)CC(c3ccco3)C2)C1c1cccs1` (centres unmarked) [compound 7706732, ethyl 7-(2-furyl)-2-methyl-5-oxo-4-(2-thienyl)-1,4,5,6,7,8-hexahydro-3-quinolinecarboxylate] was tested, and the “remaining DHODH activity (%) Average” value was 95.89%. Compound `CCOc1cc(C=Cc2ccc3cccc(OC(=O)CC)c3n2)ccc1OC(=O)CC` [compound 7706999, 2-{2-[3-ethoxy-4-(propionyloxy)phenyl]vinyl}-8-quinolinyl propionate] has a remaining activity at 10 µM of 98.2%. With `Cc1ccc(CSCC(=O)Nc2ccccc2C(=O)O)cc1` [compound 7723007, 2-({[(4-methylbenzyl)thio]acetyl}amino)benzoic acid] the remaining activity at 10 µM was -8.22%. Compound `O=C(Nc1cc(C(F)(F)F)cc(C(F)(F)F)c1)c1c(F)c(F)c(F)c(F)c1F` [compound 7739721, N-[3,5-bis(trifluoromethyl)phenyl]-2,3,4,5,6-pentafluorobenzamide] has a remaining activity at 10 µM of 98.2%. With `Oc1ccccc1-c1nc(C=Cc2cccs2)n[nH]1` [compound 7776857, 2-{3-[2-(2-thienyl)vinyl]-1H-1,2,4-triazol-5-yl}phenol] the remaining activity at 10 µM was 77.3%. `Cc1cc(O)ccc1NC(=O)c1ccc(-c2ccccc2)cc1` [compound 7782544, N-(4-hydroxy-2-methylphenyl)-4-biphenylcarboxamide] was tested, and the remaining activity at 10 µM was 73.5%. Work on `NC(=O)c1ccccc1NC(=O)Nc1ccccc1C(F)(F)F` [compound 7794325, 2-[({[2-(trifluoromethyl)phenyl]amino}carbonyl)amino]benzamide] yielded a remaining activity at 10 µM of 92.2%. `CC(C)Oc1ccccc1C1CC(=O)Nc2cc3c(cc21)OCCO3` (centres unmarked) [compound 7800701, 9-(2-isopropoxyphenyl)-2,3,8,9-tetrahydro[1,4]dioxino[2,3-g]quinolin-7(6H)-one] gave a remaining activity at 10 µM of 88.1%. With `COC(=O)c1cccc(NC(=S)Nc2cc(Cl)ccc2OC)c1` [compound 7801595, methyl 3-({[(5-chloro-2-methoxyphenyl)amino]carbonothioyl}amino)benzoate] the remaining activity at 10 µM was 100%. `O=C1CC(c2ccccc2OCc2ccccc2)c2cc3c(cc2N1)OCCO3` (centres unmarked) [compound 7834586, 9-[2-(benzyloxy)phenyl]-2,3,8,9-tetrahydro[1,4]dioxino[2,3-g]quinolin-7(6H)-one] was tested, and the remaining activity at 10 µM was 103%. `Cc1cc(=O)oc2cc(NC(=S)N3c4ccccc4CC3C)ccc12` (centres unmarked) [compound 7841649, 2-methyl-N-(4-methyl-2-oxo-2H-chromen-7-yl)-1-indolinecarbothioamide] showed a remaining activity at 10 µM of 3.65%.

Same assay, conditions: compound at 10 µM; Supplementary Table 6, 30,000 compound library
Compound `O=[N+]([O-])c1ccc2[nH]c3c(c2c1)CCCC3NC1Cc2ccccc2C1` (centres unmarked) [compound 5781444, N-(2,3-dihydro-1H-inden-2-yl)-6-nitro-2,3,4,9-tetrahydro-1H-carbazol-1-amine] has a remaining activity at 10 µM of 57.9%. With `CC1CCC(NC2CCCc3c2[nH]c2ccc([N+](=O)[O-])cc32)C1` (centres unmarked) [compound 5781446, N-(3-methylcyclopentyl)-6-nitro-2,3,4,9-tetrahydro-1H-carbazol-1-amine] the remaining activity at 10 µM was 60.5%. Work on `CC1CCC(NC2CCCc3c2[nH]c2ccc([N+](=O)[O-])cc32)CC1` (centres unmarked) [compound 5781447, N-(4-methylcyclohexyl)-6-nitro-2,3,4,9-tetrahydro-1H-carbazol-1-amine] yielded a remaining activity at 10 µM of 56.8%. `COc1ccccc1CC(C)NC1CCCc2c1[nH]c1ccc([N+](=O)[O-])cc21` (centres unmarked) [compound 5781453, N-[2-(2-methoxyphenyl)-1-methylethyl]-6-nitro-2,3,4,9-tetrahydro-1H-carbazol-1-amine] gave a remaining activity at 10 µM of 52.4%. `CC(Cc1ccccc1F)NC1CCCc2c1[nH]c1ccc([N+](=O)[O-])cc21` (centres unmarked) [compound 5781454, N-[2-(2-fluorophenyl)-1-methylethyl]-6-nitro-2,3,4,9-tetrahydro-1H-carbazol-1-amine] was tested, and the remaining activity at 10 µM was 55.4%. Work on `CC(C)NC1CCCc2c1[nH]c1ccc([N+](=O)[O-])cc21` (centres unmarked) [compound 5781470, N-isopropyl-6-nitro-2,3,4,9-tetrahydro-1H-carbazol-1-amine] yielded a remaining activity at 10 µM of 90.2%. `COc1ccc(C=NN2CCN(Cc3ccccc3)CC2)c(OC)c1` [compound 5783994, 4-benzyl-N-(2,4-dimethoxybenzylidene)-1-piperazinamine] showed a remaining activity at 10 µM of 101%. `Cc1cccc(Cc2cnc(NC(=O)c3ccc(Br)cc3)s2)c1` [compound 5852371, 4-bromo-N-[5-(3-methylbenzyl)-1,3-thiazol-2-yl]benzamide] was tested, and the remaining activity at 10 µM was 97.6%. Compound `COc1ccccc1NC(=O)C1c2ccccc2Oc2ccccc21` [compound 5867214, N-(2-methoxyphenyl)-9H-xanthene-9-carboxamide] has a remaining activity at 10 µM of 99.2%. In the case of `Cc1ccc2[nH]c3c(c2c1)CCCC3NCc1ccccc1` (centres unmarked) [compound 5869604, N-benzyl-6-methyl-2,3,4,9-tetrahydro-1H-carbazol-1-amine hydrochloride], the remaining activity at 10 µM is reported as 27.3%. `COc1ccc(Cl)cc1NC1=C(Cl)C(=O)N(c2cccc(C)c2C)C1=O` [compound 6149306, 3-chloro-4-[(5-chloro-2-methoxyphenyl)amino]-1-(2,3-dimethylphenyl)-1H-pyrrole-2,5-dione] showed a remaining activity at 10 µM of 99.6%. `CC(C)Oc1ccc(C(=O)NC(=S)Nc2ccc(N3CCCCC3)cc2)cc1` [compound 6497060, 4-isopropoxy-N-({[4-(1-piperidinyl)phenyl]amino}carbonothioyl)benzamide] gave a remaining activity at 10 µM of 101%. Compound `CCOc1ccc(NC(=S)NC(=O)c2ccc(C(C)(C)C)cc2)cc1` [compound 6501326, 4-tert-butyl-N-{[(4-ethoxyphenyl)amino]carbonothioyl}benzamide] has a remaining activity at 10 µM of 84.1%. Compound `COc1ccc(NC(=S)NC(=O)c2ccc(C(C)(C)C)cc2)c(OC)c1` [compound 6513572, 4-tert-butyl-N-{[(2,4-dimethoxyphenyl)amino]carbonothioyl}benzamide] has a remaining activity at 10 µM of 97.8%. For `CC(C)(C)c1ccc(C(=O)NC(=S)Nc2cccc([N+](=O)[O-])c2)cc1` [compound 6515740, 4-tert-butyl-N-{[(3-nitrophenyl)amino]carbonothioyl}benzamide], the remaining activity at 10 µM was 88.9%. For `CC(C)(C)c1ccc(C(=O)NC(=S)Nc2cccc(NC(=O)c3ccccc3)c2)cc1` [compound 6519439, N-({[3-(benzoylamino)phenyl]amino}carbonothioyl)-4-tert-butylbenzamide], the remaining activity at 10 µM was 63.2%. Work on `Cc1cc(O)c(NC(=S)NC(=O)c2ccc(C(C)(C)C)cc2)cc1C` [compound 6611243, 4-tert-butyl-N-{[(2-hydroxy-4,5-dimethylphenyl)amino]carbonothioyl}benzamide] yielded a remaining activity at 10 µM of 51%. `COc1cc(C=C2N=C(SC)SC2=O)cc(Br)c1OCc1ccccc1` [compound 6638116, 4-[4-(benzyloxy)-3-bromo-5-methoxybenzylidene]-2-(methylthio)-1,3-thiazol-5(4H)-one] was tested, and the remaining activity at 10 µM was 78.8%. For `CSC1=NC(=Cc2ccc(OCc3ccccc3)cc2)C(=O)S1` [compound 6638197, 4-[4-(benzyloxy)benzylidene]-2-(methylthio)-1,3-thiazol-5(4H)-one], the remaining activity at 10 µM was 74.9%. Work on `c1ccc(OCCNc2ccc3ccccc3c2)cc1` [compound 6641022, 2-naphthyl(2-phenoxyethyl)amine] yielded a remaining activity at 10 µM of 66%.

From paper PMC5856786, “A DHODH inhibitor increases p53 synthesis and enhances tumor cell killing by p53 degradation blockage” (Nature Communications, 2018)
